According to patent US10766869B2, “Triazoles for the treatment of demyelinating dieases” (Vertex Pharmaceuticals Incorporated, priority 2015, dated 2020):
Where two headings read alike, the source gives them in different places.

System: primary rat mixed cortical cells
Assay: In vitro myelination assay (MBP positive myelin strands, fold myelin pixels above background)
Assay type: cell-based
Conditions: Rattus norvegicus; for fold induction at 1 µM: 1.0 μM compound; for fold induction at 10 µM: 10.0 μM compound
In short: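 P1 rat cortical cells (neurons, OPCs, oligodendrocytes, astrocytes, microglia) were cultured 14 days at 37 °C with compound, with half-medium changes containing 1× compound on days 6 and 10. Fixed cells were immunostained for MBP and imaged at 10×. Total MBP myelin pixels per well were expressed as fold above no-compound baseline at 1.0 μM and 10.0 μM.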

[1] = read-out: Fold myelin pixels above background relative to baseline of no added compound
[2] = relative to baseline of no added compound, read-out: Fold myelin pixels above background, 1.0 μM
[3] = relative to baseline of no added compound, read-out: Fold myelin pixels above background, 10.0 μM
[4] = relative to baseline of no added compound, read-out: Fold myelin pixels above background

| SMILES | fold induction at 1 µM [2] | fold induction at 10 µM [3] | fold induction at 1 µM [4] | fold induction at 10 µM [4] | other results |
| --- | --- | --- | --- | --- | --- |
| Cc1cc(Nc2ncn(-c3cc(F)cc(F)c3)n2)c(F)c(N(C)C2COC2)c1 [Compound 969, N3-[1-(3,5-difluorophenyl)-1,2,4-triazol-3-yl]-2-fluoro-N1,5-dimethyl-N1-(oxetan-3-yl)benzene-1,3-diamine] |  |  |  |  | fold induction at 1 µM [1]: 1 to 10; fold induction at 10 µM [1]: ≤ 1 |
| Cc1cc(Nc2ncn(-c3cc(F)cc(F)c3)n2)nc(N2CC3CCOC3C2)c1 (stereo not drawn) [Compound 843, 6-(2,3,3a,4,6,6a-hexahydrofuro[2,3-c]pyrrol-5-yl)-N-[1-(3,5-difluorophenyl)-1,2,4-triazol-3-yl]-4-methyl-pyridin-2-amine] |  |  |  |  | fold induction at 1 µM [1]: 1 to 10; fold induction at 10 µM [1]: 1 to 10 |
| Clc1cc(Nc2ncn(-c3ccccc3)n2)cc(N2CCOCC2)n1 [Compound 135, 2-chloro-6-morpholino-N-(1-phenyl-1,2,4-triazol-3-yl)pyridin-4-amine] | 1000 to 10000 | ≤ 1 |  |  |  |
| Cc1cc(Nc2ncn(-c3ccccc3)n2)cc(N2CCN(C)C(C)C2)c1 (stereo not drawn) [Compound 133, N-[3-(3,4-dimethylpiperazin-1-yl)-5-methyl-phenyl]-1-phenyl-1,2,4-triazol-3-amine] | 1000 to 10000 | ≤ 1 |  |  |  |
| CC(C)(C)c1cc(Nc2ncn(-c3cncnc3)n2)cc(N2CCN(C3COC3)CC2)c1 [Compound 550, N-[3-tert-butyl-5-[4-(oxetan-3-yl)piperazin-1-yl]phenyl]-1-pyrimidin-5-yl-1,2,4-triazol-3-amine] |  |  | 10 to 100 | 10 to 100 |  |
| FC(F)(F)c1cc(Nc2ncn(-c3cnccn3)n2)cc(N2CC3CC(C2)O3)c1 [Compound 513, N-[3-(6-oxa-3-azabicyclo[3.1.1]heptan-3-yl)-5-(trifluoromethyl)phenyl]-1-pyrazin-2-yl-1,2,4-triazol-3-amine] |  |  | 100 to 1000 | 100 to 1000 |  |
| Cc1cc(Nc2ncn(-c3cc(F)cc(F)c3)n2)cc([C@@H]2CN(C3COC3)CCO2)c1 (single isomer, unassigned) [Compound 751] |  |  | 10 to 100 | ≤ 1 |  |
| CCc1cc(Nc2ncn(-c3cccc(C(F)(F)F)c3)n2)cc(N2CCN(C3COC3)CC2)c1 [Compound 218, N-[3-ethyl-5-[4-(oxetan-3-yl)piperazin-1-yl]phenyl]-1-[3-(trifluoromethyl)phenyl]-1,2,4-triazol-3-amine] | 100 to 1000 | ≤ 1 |  |  |  |
| Cc1cc(Nc2ncn(-c3cc(F)cc(F)c3)n2)cc(N2CC[N+]([O-])(C3COC3)CC2)c1 [Compound 139, 1-(3,5-difluorophenyl)-N-[3-methyl-5-[4-(oxetan-3-yl)-4-oxido-piperazin-4-ium-1-yl]phenyl]-1,2,4-triazol-3-amine] | 100 to 1000 | 1 to 10 |  |  |  |
| Cc1cc(Nc2ncn(-c3ccccc3)n2)cc(N2CCN(C3COC3)CC2)c1 [Compound 118, N-[3-methyl-5-[4-(oxetan-3-yl)piperazin-1-yl]phenyl]-1-phenyl-1,2,4-triazol-3-amine] | 100 to 1000 | 10 to 100 |  |  |  |
| Fc1cc(F)cc(-n2cnc(Nc3cc(Cl)cc(NC4COC4)c3)n2)c1 [Compound 705, 5-chloro-N3-[1-(3,5-difluorophenyl)-1,2,4-triazol-3-yl]-N1-(oxetan-3-yl)benzene-1,3-diamine] |  |  | 10 to 100 | 1 to 10 |  |
| Cc1cc(Nc2ncn(-c3cnccn3)n2)cc(N2CCN(C3(C)COC3)CC2)c1 [Compound 136, N-[3-methyl-5-[4-(3-methyloxetan-3-yl)piperazin-1-yl]phenyl]-1-pyrazin-2-yl-1,2,4-triazol-3-amine] | 1 to 10 | 10 to 100 |  |  |  |
| Fc1cc(F)cc(-n2cnc(Nc3cc(N4CCN(C5COC5)CC4)cc(C(F)(F)F)n3)n2)c1 [Compound 567, N-[1-(3,5-difluorophenyl)-1,2,4-triazol-3-yl]-4-[4-(oxetan-3-yl)piperazin-1-yl]-6-(trifluoromethyl)pyridin-2-amine] |  |  | ≤ 1 | ≤ 1 |  |
| Cc1cc(Nc2ncn(-c3cc(F)cc(F)c3)n2)cc(C2CCCN(C3COC3)C2)c1 (stereo not drawn) [Compound 408, 1-(3,5-difluorophenyl)-N-[3-methyl-5-[1-(oxetan-3-yl)-3-piperidyl]phenyl]-1,2,4-triazol-3-amine] |  |  | 100 to 1000 | 10 to 100 |  |
| Cc1cc(Nc2ncn(-c3cncc(F)c3)n2)cc(N2CCN(C3COC3)CC2)c1 [Compound 24, 1-(5-fluoro-3-pyridyl)-N-[3-methyl-5-[4-(oxetan-3-yl)piperazin-1-yl]phenyl]-1,2,4-triazol-3-amine] | 10 to 100 | 100 to 1000 |  |  |  |
| CCCc1cc(Nc2ncn(-c3cnccn3)n2)cc(N2CCN(C3COC3)CC2)c1 [Compound 236, N-[3-[4-(oxetan-3-yl)piperazin-1-yl]-5-propyl-phenyl]-1-pyrazin-2-yl-1,2,4-triazol-3-amine] | ≤ 1 | ≤ 1 |  |  |  |
| Cc1cc(NCCN2CC[S+]([O-])CC2)cc(Nc2ncn(-c3cc(F)cc(F)c3)n2)c1 [Compound 940, N1-[1-(3,5-difluorophenyl)-1,2,4-triazol-3-yl]-5-methyl-N3-[2-(1-oxo-1,4-thiazinan-4-yl)ethyl]benzene-1,3-diamine] |  |  |  |  | fold induction at 1 µM [1]: 10 to 100; fold induction at 10 µM [1]: 1 to 10 |
| Cc1cc(Nc2ncn(-c3cc(F)cc(F)c3)n2)cc(N2CCN3CCC[C@@H]3C2)c1 [Compound 128, N-[3-[(8aR)-3,4,6,7,8,8a-hexahydro-1H-pyrrolo[1,2-a]pyrazin-2-yl]-5-methyl-phenyl]-1-(3,5-difluorophenyl)-1,2,4-triazol-3-amine] | 10 to 100 | 10 to 100 |  |  |  |
| FC(F)c1cc(Nc2ncn(-c3cccc(C(F)(F)F)c3)n2)nc(N2CC(N3CCOCC3)C2)c1 [Compound 719, 4-(difluoromethyl)-6-(3-morpholinoazetidin-1-yl)-N-[1-[3-(trifluoromethyl)phenyl]-1,2,4-triazol-3-yl]pyridin-2-amine] |  |  | 1 to 10 | ≤ 1 |  |
| COC1CCCC1Nc1cc(C)cc(Nc2ncn(-c3cc(F)cc(F)c3)n2)c1 (stereo not drawn) [Compound 1065, N3-[1-(3,5-difluorophenyl)-1,2,4-triazol-3-yl]-N1-(2-methoxycyclopentyl)-5-methyl-benzene-1,3-diamine] |  |  |  |  | fold induction at 1 µM [1]: 10 to 100; fold induction at 10 µM [1]: 1 to 10 |
| Cc1cc(Nc2ncn(-c3cc(F)cc(F)c3)n2)cc(NC2CC(N3CCOCC3)C2)c1 (stereo not drawn) [Compound 797, N3-[1-(3,5-difluorophenyl)-1,2,4-triazol-3-yl]-5-methyl-N1-(3-morpholinocyclobutyl)benzene-1,3-diamine] |  |  |  |  | fold induction at 1 µM [1]: 1 to 10; fold induction at 10 µM [1]: ≤ 1 |
| Cc1cc(Nc2ncn(-c3cc(F)cc(F)c3)n2)cc(N2CC(N3CC4CC(C3)O4)C2)c1 [Compound 742, 1-(3,5-difluorophenyl)-N-[3-methyl-5-[3-(6-oxa-3-azabicyclo[3.1.1]heptan-3-yl)azetidin-1-yl]phenyl]-1,2,4-triazol-3-amine] |  |  | 10 to 100 | ≤ 1 |  |
| Fc1cc(F)cc(-n2cnc(Nc3cc(C4CC4)nc(N4CCCCC4)c3)n2)c1 [Compound 378, 2-cyclopropyl-N-[1-(3,5-difluorophenyl)-1,2,4-triazol-3-yl]-6-(1-piperidyl)pyridin-4-amine] | 1 to 10 | 10 to 100 |  |  |  |
| CCOCCN1CCN(c2cc(C)cc(Nc3ncn(-c4cc(F)cc(F)c4)n3)c2)CC1C (stereo not drawn) [Compound 1063, 1-(3,5-difluorophenyl)-N-[3-[4-(2-ethoxyethyl)-3-methyl-piperazin-1-yl]-5-methyl-phenyl]-1,2,4-triazol-3-amine] |  |  |  |  | fold induction at 1 µM [1]: 10 to 100; fold induction at 10 µM [1]: ≤ 1 |
| CCC1(O)CN(c2cc(C)cc(Nc3ncn(-c4cc(F)cc(F)c4)n3)c2)C1 [Compound 553, 1-[3-[[1-(3,5-difluorophenyl)-1,2,4-triazol-3-yl]amino]-5-methyl-phenyl]-3-ethyl-azetidin-3-ol] |  |  | 100 to 1000 | 10 to 100 |  |
| Cc1cc(Nc2ncn(-c3ccc(F)c(F)c3)n2)cc(NC2CCN(C3COC3)C2)c1 (stereo not drawn) [Compound 113, N3-[1-(3,4-difluorophenyl)-1,2,4-triazol-3-yl]-5-methyl-N1-[1-(oxetan-3-yl)pyrrolidin-3-yl]benzene-1,3-diamine] | 1000 to 10000 | ≤ 1 |  |  |  |
| Cc1cc(Nc2ncn(-c3cncnc3)n2)cc(N2CCN(C3COC3)CC2)c1 [Compound 535, N-[3-methyl-5-[4-(oxetan-3-yl)piperazin-1-yl]phenyl]-1-pyrimidin-5-yl-1,2,4-triazol-3-amine] |  |  | 1 to 10 | 1 to 10 |  |
| Fc1ccc(-n2cnc(Nc3cc(C(F)F)cc(N4CCN(C5COC5)CC4)n3)n2)cc1Cl [Compound 859, N-[1-(3-chloro-4-fluoro-phenyl)-1,2,4-triazol-3-yl]-4-(difluoromethyl)-6-[4-(oxetan-3-yl)piperazin-1-yl]pyridin-2-amine] |  |  |  |  | fold induction at 1 µM [1]: 1 to 10; fold induction at 10 µM [1]: 1 to 10 |
| Cc1cc(Nc2ncn(-c3ccccc3)n2)cc(N2CC3(COC3)C2)c1 [Compound 7, N-[3-methyl-5-(6-oxa-2-azaspiro[3.3]heptan-2-yl)phenyl]-1-phenyl-1,2,4-triazol-3-amine] | 1000 to 10000 | 1000 to 10000 |  |  |  |
| Fc1cccc(-n2cnc(Nc3cc(C(F)(F)F)cc(N4CCN(C5COC5)CC4)n3)n2)c1 [Compound 545, N-[1-(3-fluorophenyl)-1,2,4-triazol-3-yl]-6-[4-(oxetan-3-yl)piperazin-1-yl]-4-(trifluoromethyl)pyridin-2-amine] |  |  | 10 to 100 | 10 to 100 |  |
